Assay results taken from US12653772B2, “Use of a rosebush extract as depigmenting active agent” (L'OREAL, priority 2020, dated 2026).

Test system: reconstructed pigmented Episkin model
Assay: Depigmenting effect by topical application on the reconstructed pigmented Episkin model; melanin quantified by image analysis of Fontana-Masson stained sections
Assay type: cell-based
Settings: DMSO control 569.02
Protocol: The results of the evaluation are compared to those of the solvent (DMSO) control and of a reference whitening active agent (Lucinol).
The histological quality of the epidermis after treatment was evaluated on the HES-stained histological section in order to determine the effect of the treatment on the epidermis.
The melanocyte physiology was also evaluated in order to detect melanocyte cytotoxicity.
The melanin present in the PRE is stained on the histological slide (Fontana-Masson staining) and then quantified by image analysis.
Each epidermis slide is digitized using Nanozoomer®.
For each epidermis, about 10˜15 images are extracted (white light, magnification ×20).
The area occupied by melanin is quantified using the Histolab® software.
Two parameters, namely graphic comparison (box-plot) and p value significance (Mann-Whitney U test), were applied to the interpretation of the statistical results.
Up to 6 repetitions were calculated for each treatment group.
The statistical significance between the test groups and the corresponding solvent controls was determined using the non-parametric Mann-Whitney U test (n=6).
The statistical significance is defined if the p value is less than 0.05. […]
The area occupied by melanin is quantified using the Histolab® software and is represented by the mean pixel number per image. […]

**Q.** Which results are given for CCCCc1ccc(O)cc1O [Lucinol]?
**A.** Mean pixel number/image (area occupied by melanin) (300 μM): 394.69; Mean pixel number/image (area occupied by melanin) (500 μM): 467.76
